This is an account of results in CN101993370A, “蓝萼甲素酸酯衍生物及其制备方法和应用” (SHANGHAI JINHAO PHARMACEUTICAL DEVELOPMENT Co Ltd, priority 2009, dated 2011).

For series [1] the following is noted: cited from earlier work.
The conditions of series [2]: in vivo and in vitro; cited from earlier work.
The test system of series [3] is 5180 ascites type [5180腹水型]. To be noted: mice bearing 5180 ascites type; cited from earlier work.
The test system of series [4] is HCA ascites type [HCA腹水型]. As to conditions: mice bearing HCA ascites type; cited from earlier work.
The conditions of series [5]: in vivo; cited from earlier work.
The conditions of series [6]: cited from earlier work. This is another data set of the same source.
Series [7] deals with 5180 solid type [5180实体型]. To be noted: cited from earlier work.
In series [8] the test system is Lewis lung cancer [Lewis肺癌]. As to conditions: solid tumor; cited from earlier work.
The test system of series [9] is HCA solid type [HCA实体型]. As to conditions: cited from earlier work.
For series [10] the following is noted: cited from earlier work. The source holds these as a separate data set.
In series [11] the test system is lung cancer A549 tumor cells [肺癌A549肿瘤细胞]. The series can be described thus: MTT assay, A549 lung cancer tumor cells (Example 33). Type of series: cell-based. As to conditions: 48 h, positive control. In general terms: Tetrazolium assays rely on reduction of a dye to a coloured formazan, in cell work by metabolically active cells.

With `C=C1C(=O)[C@@]23[C@H](O)C[C@@H]4C(C)(C)C(=O)CC[C@@]4(C)[C@@H]2CC[C@@H]1[C@H]3O` [蓝萼甲素], the “requirement for efficacy in vivo” value in series [1] is “需大剂量长时间用药才能产生药效”. For the same compound, in series [2], the antitumor effect entry was “较强的抗肿瘤作用”, the antitumor spectrum result was “抗瘤谱较广” and the “dose dependence of antitumor effect” value was “呈剂量依赖性”. Also, the life prolongation rate entry in series [3] is recorded as “明显增加”. Moreover, the life prolongation rate entry in series [4] is “明显增加”. In [5], the elimination entry is “药物在体内消除很快” and the half-life entry is given as “半衰期短”. Moreover, in series [6] (chloroform and other nonpolar solvents), the “solubility in nonpolar solvents” value is given as “易溶于氯仿等非极性溶剂”. In addition, in series [6] (water), the solubility in water entry is on record as “在水中不溶”. The “inhibition of tumor growth” value in series [7] is on record as “能抑制”. In series [8], the “inhibition of tumor growth” value was “能抑制”. Also, the “inhibition of tumor growth” value in series [9] is “能抑制”. The “anticancer effect in vitro” value in series [10] is “明显的抗癌作用”.

For the compound `COc1cccc2c1C(=O)c1c(O)c3c(c(O)c1C2=O)C[C@@](O)(C(=O)CO)C[C@@H]3O[C@H]1C[C@H](N)[C@H](O)[C@H](C)O1` [阿霉素], the “A value (490nm)” value in series [11] (0.01l/ml) is 0.452 ± 0.057; in [11] (0.1μl/ml), 0.406 ± 0.075; in [11] (1μl/ml) it was 0.370 ± 0.087. In addition, the inhibition rate in series [11] (0.01l/ml) amounted to 59.46%; in series [11] (0.1μl/ml) it was 73.31%; in series [11] (1μl/ml), 81.21%.
